Structures are written as SMILES.

These results are taken from patent US20220096485A1, “FUNCTIONALIZED PYRANO[2,3-D]PYRIMIDIN-7-ONE DERIVATIVES AND METHODS FOR THEIR PREPARATION AND USE” (The Texas A&M University System, priority 2016, published 2022).

Sequence of Abelson kinase 2 (ABL2) (P42684 whole entry): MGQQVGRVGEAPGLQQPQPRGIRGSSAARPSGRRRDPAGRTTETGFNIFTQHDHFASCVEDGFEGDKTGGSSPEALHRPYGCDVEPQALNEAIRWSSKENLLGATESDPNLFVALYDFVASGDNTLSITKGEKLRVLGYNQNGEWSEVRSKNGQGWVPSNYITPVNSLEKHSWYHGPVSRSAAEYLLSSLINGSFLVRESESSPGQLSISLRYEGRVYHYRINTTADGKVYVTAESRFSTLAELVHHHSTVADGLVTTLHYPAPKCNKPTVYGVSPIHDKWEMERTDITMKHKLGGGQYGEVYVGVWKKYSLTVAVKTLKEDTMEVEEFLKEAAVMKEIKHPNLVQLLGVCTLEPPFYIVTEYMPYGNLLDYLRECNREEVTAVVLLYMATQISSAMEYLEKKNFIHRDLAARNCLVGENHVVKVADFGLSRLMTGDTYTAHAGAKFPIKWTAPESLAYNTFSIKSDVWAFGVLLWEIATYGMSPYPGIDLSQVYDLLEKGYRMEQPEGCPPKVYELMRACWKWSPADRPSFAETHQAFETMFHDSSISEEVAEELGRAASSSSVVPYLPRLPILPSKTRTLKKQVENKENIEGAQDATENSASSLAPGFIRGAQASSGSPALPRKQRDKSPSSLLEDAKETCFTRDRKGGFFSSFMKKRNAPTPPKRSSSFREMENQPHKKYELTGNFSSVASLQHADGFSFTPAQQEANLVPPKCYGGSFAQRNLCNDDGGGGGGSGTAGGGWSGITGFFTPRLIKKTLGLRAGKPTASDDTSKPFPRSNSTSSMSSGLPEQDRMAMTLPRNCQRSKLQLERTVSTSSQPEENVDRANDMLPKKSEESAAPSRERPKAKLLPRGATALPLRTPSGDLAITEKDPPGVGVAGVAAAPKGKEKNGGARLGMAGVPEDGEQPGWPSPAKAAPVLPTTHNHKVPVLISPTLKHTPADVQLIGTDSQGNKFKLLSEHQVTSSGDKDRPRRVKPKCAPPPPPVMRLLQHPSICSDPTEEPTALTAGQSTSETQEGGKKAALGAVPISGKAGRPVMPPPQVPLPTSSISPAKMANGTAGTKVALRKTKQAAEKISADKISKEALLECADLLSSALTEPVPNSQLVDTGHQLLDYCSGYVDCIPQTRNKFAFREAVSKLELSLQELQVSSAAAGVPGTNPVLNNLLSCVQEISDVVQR

This experiment addresses Abelson kinase 2 (ABL2) (Homo sapiens, UniProt P42684). The experiment is described as follows: Eurofins Arg (ABL2) Human TK Kinase Binding Assay.
In general, Kd refers to the concentration at which binding is half-saturated. Read a low Kd as tighter binding. `Cc1cc(Nc2ncc3cc(-c4c(Cl)cccc4Cl)c(=O)oc3n2)ccc1F` [Compound 12a, 2-(4-Fluoro-3-methylphenylamino)-6-(2,6-dichlorophenyl)-7H-pyrano[2,3-d]pyrimidin-7-one] returned a Kd of 3.9 nM. With `CSc1cccc(Nc2ncc3cc(-c4c(Cl)cccc4Cl)c(=O)oc3n2)c1` [Compound 12b, 2-(3-(Methylthio)phenylamino)-6-(2,6-dichlorophenyl)-7H-pyrano[2,3-d]pyrimidin-7-one] the figure was 3.8 nM; with `Nc1cccc(Nc2ncc3cc(-c4c(Cl)cccc4Cl)c(=O)oc3n2)c1` [Compound 12c, 2-(3-Aminophenylamino)-6-(2,6-dichlorophenyl)-7H-pyrano[2,3-d]pyrimidin-7-one], 1.1 nM. With `N#Cc1cccc(Nc2ncc3cc(-c4c(Cl)cccc4Cl)c(=O)oc3n2)c1` [Compound 12d, 3-(6-(2,6-Dichlorophenyl)-7-oxo-7H-pyrano[2,3-d]pyrimidin-2-ylamino)benzonitrile] the figure was 4.5 nM; with `COc1cccc(Nc2ncc3cc(-c4c(Cl)cccc4Cl)c(=O)oc3n2)c1` [Compound 12e, 6-(2,6-Dichlorophenyl)-2-(3-methoxyphenylamino)-7H-pyrano[2,3-d]pyrimidin-7-one], 1.3 nM. To `CN(C)c1ccc(Nc2ncc3cc(-c4c(Cl)cccc4Cl)c(=O)oc3n2)cc1` [Compound 12f, 6-(2,6-Dichlorophenyl)-2-(4-(dimethylamino)phenylamino)-7H-pyrano[2,3-d]pyrimidine-7-one] belongs 6.9 nM; to `CC(=O)Nc1cccc(Nc2ncc3cc(-c4c(Cl)cccc4Cl)c(=O)oc3n2)c1` [Compound 12g, N-(3-(6-(2,6-Dichlorophenyl)-7-oxo-7H-pyrano[2,3-d]pyrimidine-2-ylamino)-phenyl)-acetamide], 1.1 nM; to `Cc1cccc(C)c1-c1cc2cnc(Nc3cccc(N)c3)nc2oc1=O` [Compound 19a, 2-(3-Aminophenylamino)-6-(2,6-dimethylphenyl)-7H-pyrano[2,3-d]pyrimidine-7-one], 1.3 nM. For the molecule `CC(=O)Nc1cccc(Nc2ncc3cc(-c4c(C)cccc4C)c(=O)oc3n2)c1` [Compound 19b, N-(3-(6-(2,6-Dimethylphenyl)-7-oxo-7H-pyrano[2,3-d]pyrimidine-2-ylamino)phenyl)-acetamide], binding was put at a Kd of 1.3 nM. To `Nc1cccc(Nc2ncc3cc(-c4ccccc4)c(=O)oc3n2)c1` [Compound 19c, 2-(3-Aminophenylamino)-6-phenyl-7H-pyrano[2,3-d]pyrimidin-7-one] belongs 130 nM.
